Counter-ions that a name gives are not always drawn. Like-named read-outs stand apart in the source and are kept apart here.
Tests used:
μOR = target: T1, μOR (Homo sapiens, UniProt P35372); experiment: Opioid receptor competitive binding test, μOR; details: [3H]-labeled ligand, CHO cell membranes, ± SD of three measurements; for μOR binding rate: compound at 10 μM
T1 construct: expressed in transfected cells; host or cells: CHO cells
Procedure: (§1) CHO cells expressing p opioid receptor, δ opioid receptor and K opioid receptor are cultured in a 10 cm^2 Petri dish (F-12 medium+10% newborn bovine serum) for several days, and the culture solution is sucked after the cells grew to the bottom of the dish. 3 ml PBS/EDTA solution (0.1M NaCl, 0.01M NaH2PO4, 0.04% EDTA) is added for digestion for 3-5 minutes. The cells are blown with a straw to get fall off completely, collected in a 40 ml centrifuge tube, centrifuged at 5000 rpm for 5 minutes, and removed with the supernatant. The centrifuge tube is added with ice-cold homogenate (50 mM HEPES PH 7.4, 3 mM MgCl2, 1 mM EGTA). The solution and precipitate are transferred to homogenizer for homogenization; Then the homogenate is transferred into a centrifuge tube, centrifuged at 18000 rpm for 15 minutes, and centrifuged twice; the obtained precipitate is added with an appropriate amount of buffer solution of 50 mM Tris-HCl and pH 7.4, homogenized and sub-packaged in centrifuge tubes. The product is stored in a refrigerator at −70° C. for later use.
(§2) 20-30 μg expressed membrane receptor protein and [3H]-labeled ligand (1-2 nM) are added to the total binding tube, added with 1 μM of corresponding ligand to the corresponding nonspecific binding tube. Various screened opioid ligand drugs (see the drug compounds in Table 1 below) are added to the sample tube with 100 μL final volume. The sample is incubated at 30° C. for 30 minutes, and the reaction is terminated in ice water. The glass fiber filter paper gF/C (whatman) is used for negative pressure filtration on Millipore sample collector. The sample is eluted with 4 ml 50 mm tris-HCl (pH 7.4) for three times, dried with the filter paper, put in 0.5 ml Eppendorf tube and added with 0.5 ml lipophilic scintillation liquid. The radioactive intensity is measured with PERKIN ELMER PRI-CARB 2910 liquid scintillation counter with calculation of the inhibition rate. The experiment is repeated for more than three times, with three compound tubes in each group. Inhibition rate(or binding rate)=(total binding rate dpm−sample tube dpm)/(total binding tube dpm-nonspecific binding tube dpm)×100%
(§3) IC50 is calculated with Prism 5.0 software. The Ki value is calculated according to the following formula: Ki=IC50/(1^+[L]/Kd), wherein [L] is the concentration of the added labeled ligand, and Kd is the equilibrium dissociation parameter of the labeled ligand.

δOR = target: T2, δOR (Homo sapiens, UniProt P41143); experiment: Opioid receptor competitive binding test, δOR; details: [3H]-labeled ligand, CHO cell membranes, ± SD of three measurements; for δOR binding rate: compound at 10 μM
T2 construct: expressed in transfected cells; host or cells: CHO cells
Procedure: as §1, §2, §3

κOR = target: T3, κOR (Homo sapiens, UniProt P41145); experiment: Opioid receptor competitive binding test, κOR; details: [3H]-labeled ligand, CHO cell membranes, ± SD of three measurements; for κOR binding rate: compound at 10 μM
T3 construct: expressed in transfected cells; host or cells: CHO cells
Procedure: as §1, §2, §3

hERG potassium channel = hERG potassium channel (Homo sapiens, UniProt Q12809); experiment: hERG potassium channel whole-cell patch clamp (HEK293); format: cell-based; parameters: expressed in transfected cells; host or cells: HEK293 cell line; details: for IC50: HEK293 cells stably expressing hERG, whole-cell patch clamp, room temperature, read-out: Half-inhibition concentration of compounds to be tested on hERG (IC50)
Text: The rapidly activated potassium channel encoded by human ether-a-go-go-related gene (hERG) is an important ion channel involved in the formation of phase 3 repolarization of myocardial action potential. […] Drug-induced delayed ventricular repolarization may cause fatal arrhythmia-torsade de pointes in some cases. According to statistics, about 25-40% of the lead compounds show different degrees of hERG-related toxicity, and many drugs are withdrawn from the market because they may lead to the risk of QT interval extension. At present, National Medical Products Administration also requires hERG/IKr safety evaluation data before clinical trial application (IND) of new drugs under study. • 1. Whole-cell patch clamp technique is used to study the inhibitory effect of compounds on hERG potassium channels: • 1) the compound to be tested is stored with physiological saline prepared into 10 mM liquid. The test stock solution is diluted with physiological saline into 3 mM, 1 mM and 0.3 mM diluents in turn. […] The old culture medium removed and is washed once with PBS, then added with 1 mL TrypLE™ Express solution and incubated at 37° C. for about 0.5 minutes. When the cells are detached from the bottom of the dish, about 5 ml complete medium preheated is added at 37° C. The cell suspension is gently blown with a straw to separate the aggregated cells. The cell suspension is transferred to a sterile centrifuge tube and centrifuged at 1000 rpm for 5 minutes to collect cells. […] The clamping voltage is depolarized from −80 mV to −50 mV for 0.5 seconds (as leakage current detection), then stepped to 30 mV for 2.5 seconds, and then quickly recovered to −50 mV for 4 seconds, which can excite the tail current of hERG channel. Data are collected repeatedly every 10s to observe the effect of drugs on hERG tail current. 0.5 seconds-50 mV stimulation is used as leakage current detection. The test data are collected by IPA amplifier (Sutter Instrument) and stored in SutterPatch software.
Capillary glass tube is drawn into recording electrode by microelectrode drawing instrument. Under the inverted microscope, the microelectrode manipulator is operated to contact the recording electrode with the cell, and negative pressure suction is given to form a GΩ seal. After the GΩ seal is formed, rapid capacitance compensation is carried out, and then negative pressure is continuously applied to break the cell membrane, forming a whole cell recording mode. Then the slow capacitance is compensated and the film capacitance and series resistance are recorded. No leakage compensation is given.
When the hERG current recorded in the whole cell is stable, the drug is administered, and the next concentration is detected after each drug concentration acts for 5 minutes (or the current is stable), and multiple concentrations are detected for each test compound. The cover glass covered with cells is placed in the recording bath in an inverted microscope, and the test compound and the external liquid containing no compound flowed through the recording bath from low concentration to high concentration by gravity perfusion method, so as to act on the cells, and liquid exchange is carried out by using a vacuum pump during recording. The current detected by each cell in the external fluid without compounds is used as its own control group.
At least two cells are used to detect each concentration independently and repeatedly twice. All electrophysiological tests are conducted at room temperature.
Firstly, the current after each drug concentration and the blank control current are standardized
[formula] followed by the calculation of the inhibition rate
[formula] corresponding to each drug concentration, the average and standard deviation for each concentration, and the semi-inhibition concentration of each compound with the following equation: […]
The dose-dependent effect is nonlinear fitted by the above equation, and IC50 is semi-inhibitory concentration.

Female Kunming mice = experiment: Hot plate analgesia test in mice; format: in vivo; details: 55° C. hot plate; for ED50: Mus musculus, ip
Procedure: Female Kunming mice weighing about 20 g are placed on a hot plate instrument preheated to 55° C., and the latency of licking hind feet or lifting hind feet is used as the pain threshold index. Animals are screened before the experiment, and animals with latency less than 5 s or more than 30 s are excluded. To prevent foot burns, the longest observation time is set to 60s. The basic pain threshold is the average of two measurements, and the interval between the two measurements is 5 minutes. The pain threshold of mice in each group is determined at 15 minutes, 30 minutes, 60 minutes and 120 minutes after intraperitoneal administration. The effective percentage of analgesia (% MPE) is calculated according to the following formula
[formula] According to the effective percentage of analgesia, the ED50 value is calculated by graphpad prism 5.0 software.

ICR mice = experiment: Evaluation of side effects of constipation (defecation time, number, weight); format: in vivo; details: 7.5 mg/kg
Procedure: Constipation side effect is a common side effect of opioid drugs. This patent evaluates the possibility of constipation side effect by the influence of the compound on defecation time, defecation quantity and defecation weight of experimental animals.
ICR mice are randomly divided into 6 groups with 10 mice in each group after adaptive feeding. Fasting for 16-24 h, without stopping drinking, the blank control group is given solvent, during which the normal diet is: (1) the blank control group; (2) Compound diphenoxylate (7.5 mg/kg) group; (3) Low dose (1 mg/kg) group; (4) High dose (5 mg/kg) group of the compound to be tested.
After administration for 30 minutes, the mice in each group are given Chinese ink by gavage. After administration, the mice are kept in a single cage, and the excretion time of the first black stool is recorded. The number and weight (wet weight) of defecation particles in each mouse within 5 hours after administration are recorded. each group of mice are placed in an IVC cage with clean filter paper. The feces of each mouse are collected, put into a sterile 1.5 ml EP tube and stored in an ice box. During the collection, the number of defecation particles of each mouse is recorded, and the wet weight is weighed. After the collected feces are dried, the dry weight of the feces is recorded. Drying conditions: put fresh feces in an oven and bake at 100° C. for 5-10 minutes until the dry weight of feces is constant. The following formula is used to calculate the water content of feces, and the water content of feces (%)=(wet feces mass−dry feces mass)/wet feces mass×100%.
The data required for measurement and observation in this experiment are recorded in the corresponding table. All data are statistically processed by Microsoft Excel, and expressed as “mean standard error”. The data of each group are statistically analyzed by SPSS software package.

## (3R,4S)-1-(benzylsulfonyl)-4-(3-hydroxyphenyl)-3-(((methyl(methyl-d3)amino)methyl)-4-piperidinol [II-2hydrochloride]
μOR
  Ki: 0.00012 µM
δOR
  Ki: 0.482 ± 0.0284 µM
κOR
  Ki: 0.0256 ± 0.00272 µM
hERG potassium channel
  hERG inhibition grade: μM((Weak inhibition)
hERG potassium channel; listed as II-2
  IC50: 25.1 µM
hERG potassium channel; listed as Il-2hydrochloride
  IC50: 14.7 µM

## CN(C)C[C@@H]1CN(S(=O)(=O)Cc2ccccc2)CC[C@@]1(O)c1cccc(O)c1.Cl [Example 22 of CN201911076305.X, (3R, 4S)-1-(benzylsulfonyl)-3-(dimethylamino)methyl)-4-(3-hydroxyphenyl)-4-piperidinol hydrochloride, reference compound]
μOR
  Ki: 0.00017 µM
δOR
  Ki: 1.1 ± 0.042 µM
κOR
  Ki: 0.0337 ± 0.00326 µM

## [2H]C([2H])([2H])Oc1cccc([C@]2(O)CCN(C(=O)Cc3cc(F)c(F)cc3F)C[C@H]2CN(C)C([2H])([2H])[2H])c1 [II-12hydrochloride]
μOR
  μOR binding rate: 26.3 ± 1.2%
δOR
  δOR binding rate: 12.0 ± 3.3%
κOR
  κOR binding rate: 13.6 ± 1.9%
Female Kunming mice; 10 mg/kg, intraperitoneal
  Maximum analgesic effective percentage (% MPE), hot plate: 100%

## [2H]C([2H])([2H])Oc1cccc(C2(O)CCN(C(=O)Cc3cc(F)c(F)cc3F)CC2CN(C([2H])([2H])[2H])C([2H])([2H])[2H])c1 (centres unmarked) [I-7hydrochloride]
μOR
  μOR binding rate: 20.7 ± 2.2%
δOR
  δOR binding rate: 9.9 ± 0.5%
κOR
  κOR binding rate: 15.9 ± 0.7%
Female Kunming mice; intraperitoneal
  ED50: 0.89 mg/kg
hERG potassium channel
  hERG inhibition grade: μM((Weak inhibition)
  IC50: 21.6 µM

## [2H]C([2H])([2H])Oc1cccc([C@]2(O)CCN(S(=O)(=O)Cc3ccccc3)C[C@H]2CN(C)C([2H])([2H])[2H])c1 [II-6hydrochloride]
μOR
  μOR binding rate: 28.4 ± 2.0%
δOR
  δOR binding rate: 10.5 ± 1.7%
κOR
  κOR binding rate: 14.5 ± 3.1%
Female Kunming mice; intraperitoneal
  ED50: 0.79 mg/kg

## [2H]C([2H])([2H])Oc1cccc(C2(O)CCN(C(=O)Cc3cc(F)c(F)cc3F)CC2CN(C)C([2H])([2H])[2H])c1 (centres unmarked) [I-6hydrochloride]
μOR
  μOR binding rate: 21.0 ± 3.0%
δOR
  δOR binding rate: 11.6 ± 1.7%
κOR
  κOR binding rate: 20.5 ± 2.3%
Female Kunming mice; 10 mg/kg, intraperitoneal
  Maximum analgesic effective percentage (% MPE), hot plate: 100%

## [2H]C([2H])([2H])Oc1cccc(C2(O)CCN(S(=O)(=O)Cc3ccccc3)CC2CN(C)C([2H])([2H])[2H])c1 (centres unmarked) [I-2hydrochloride]
μOR
  μOR binding rate: 24.75 ± 3.1%
δOR
  δOR binding rate: 10.9 ± 1.2%
κOR
  κOR binding rate: 23.8 ± 1.9%
Female Kunming mice; 10 mg/kg, intraperitoneal
  Maximum analgesic effective percentage (% MPE), hot plate: 100%

## COc1cccc(C2(O)CCCCC2CN(C)C)c1 (centres unmarked) [Tramadol, reference compound]
μOR
  μOR binding rate: 6.0 ± 0.4%
δOR
  δOR binding rate: 0%
κOR
  κOR binding rate: 0%
Female Kunming mice; 50 mg/kg dosage
  Maximum analgesic effective percentage (% MPE), hot plate: 64.5% ((50 mg/kg/dosage)

## CN(C)C[C@@H]1CN(S(=O)(=O)Cc2ccccc2)CC[C@@]1(O)c1cccc(O)c1.Cl [Example 22 of CN201911076305.X, reference compound]
hERG potassium channel; listed as Example 22 of patent CN201911076305.X, hydrochloride
  hERG inhibition grade: moderate inhibitory effects on hERG
hERG potassium channel; listed as example 22 of the prior art of CN201911076305.X, hydrochloride
  hERG inhibition grade: μM(Moderate intensity inhibition)

## CCOC(=O)C1(c2ccccc2)CCN(CCC(C#N)(c2ccccc2)c2ccccc2)CC1 [Diphenoxylate, reference compound]
ICR mice; 10 mice per group, within 5 hours
  Number of defecating animals: 10
ICR mice; first black stool, x ± SE, only animals that defecate within 5 hours
  Defecation time: 148.4 ± 7.9 min
ICR mice; only animals that defecate within 5 hours, x ± SE
  water content of feces: 41.4 ± 3.7%
ICR mice; within 5 hours, x ± SE
  Fecal weight: 0.3005 ± 0.0289 g

Reference: patent US12509421B2, “Preparation and application of deuterated 4-phenyl-4-piperidinols” (priority 2022, dated 2025)
